Measurements: ChEMBL document CHEMBL5625165, “Nine-valent oleanolic acid conjugates as potent inhibitors blocking the entry of influenza A virus” (Eur J Med Chem, 2023)

What was measured:
Influenza A virus [1] = assay: Antiviral activity against influenza A virus A/WSN/33(H1N1) infected in MDCK cells assessed as inhibition of viral growth at 30 uM incubated for 48 hrs by microscopic analysis; type: functional; parameters: scale not given: the % may be the effect or the level left
[2] = Selectivity index, ratio of CC50 for cytotoxicity against dog MDCK cells assessed as reduction in cell viability to IC50 for antiviral activity against influenza A virus A/WSN/33(H1N1) infected in MDCK cells assessed as inhibition of viral-induced cytopathic effect; type: toxicity, cell-based; conditions: read-out: Ratio CC50/IC50
Influenza A virus [3] = assay: Antiviral activity against influenza A virus B/Darwin/58/2019 (Yamagata) infected in MDCK cells assessed as inhibition of viral growth; type: functional, organism-based
[4] = Cytotoxicity against dog MDCK cells assessed as cell viability at 30 uM incubated for 48 hrs by celltiter-glo assay; type: toxicity, cell-based, Canis lupus familiaris; conditions: read-out: Activity
Influenza A virus [5] = assay: Antiviral activity against influenza A virus B/Sichuan/531/2018 (Victoria) infected in MDCK cells assessed as inhibition of viral growth; type: functional, organism-based
[6] = Cytotoxicity against dog MDCK cells assessed as reduction in cell viability incubated for 48 hrs by celltiter-glo assay; type: toxicity, cell-based, Canis lupus familiaris
Erythrocyte = assay: Hemolytic activity in rabbit RBC assessed as hemolysis at 300 uM incubated for 2 hr by spectrophotometry analysis; type: toxicity, cell-based, Oryctolagus cuniculus
Influenza A virus [7] = assay: Antiviral activity against influenza A virus A/WSN/33(H1N1) infected in MDCK cells assessed as inhibition of viral-induced cytopathic effect incubated for 48 hrs by microscopic analysis; type: functional, organism-based
[8] = Selectivity index, ratio of CC50 for cytotoxicity against dog MDCK cells assessed as reduction in cell viability to IC50 for antiviral activity against influenza A virus B/Sichuan/531/2018 (Victoria) infected in MDCK cells assessed as inhibition of viral growth; type: toxicity, cell-based; conditions: read-out: Ratio CC50/IC50
[9] = Selectivity index, ratio of CC50 for cytotoxicity against dog MDCK cells assessed as reduction in cell viability to IC50 for antiviral activity against influenza A virus B/Darwin/58/2019 (Yamagata) infected in MDCK cells assessed as inhibition of viral growth; type: toxicity, cell-based; conditions: read-out: Ratio CC50/IC50

| SMILES | Activity (Influenza A virus [1]) | selectivity ratio [2] | IC50 (Influenza A virus [3]) | viability at 48 h, 30 µM [4] | IC50 (Influenza A virus [5]) | CC50 at 48 h [6] | Activity (Erythrocyte) | IC50 (Influenza A virus [7]) | selectivity ratio [8] | selectivity ratio [9] |
| --- | --- | --- | --- | --- | --- | --- | --- | --- | --- | --- |
| CCOC(=O)C1=C[C@@H](OC(CC)CC)[C@H](NC(C)=O)[C@@H](N)C1.O=P(O)(O)O [OSELTAMIVIR PHOSPHATE] | 89.22% | > 55 | > 100 µM | 100% | > 100 µM | > 100 µM | – | – | – | – |
| CC1(C)CC[C@]2(C(=O)NCCOCCOCCOCCOCCn3cc(COc4cc(C(=O)NCCNC(=O)OCCn5cc(COc6cc(OCc7cn(CCOC(=O)NCCNC(=O)c8cc(OCc9cn(CCOCCOCCOCCOCCNC(=O)[C@]%10%11CCC(C)(C)C[C@H]%10C%10=CC[C@@H]%12[C@@]%13(C)CC[C@H](O)C(C)(C)[C@@H]%13CC[C@@]%12(C)[C@]%10(C)CC%11)nn9)c(OCc9cn(CCOCCOCCOCCOCCNC(=O)[C@]%10%11CCC(C)(C)C[C@H]%10C%10=CC[C@@H]%12[C@@]%13(C)CC[C@H](O)C(C)(C)[C@@H]%13CC[C@@]%12(C)[C@]%10(C)CC%11)nn9)c(OCc9cn(CCOCCOCCOCCOCCNC(=O)[C@]%10%11CCC(C)(C)C[C@H]%10C%10=CC[C@@H]%12[C@@]%13(C)CC[C@H](O)C(C)(C)[C@@H]%13CC[C@@]%12(C)[C@]%10(C)CC%11)nn9)c8)nn7)cc(OCc7cn(CCOC(=O)NCCNC(=O)c8cc(OCc9cn(CCOCCOCCOCCOCCNC(=O)[C@]%10%11CCC(C)(C)C[C@H]%10C%10=CC[C@@H]%12[C@@]%13(C)CC[C@H](O)C(C)(C)[C@@H]%13CC[C@@]%12(C)[C@]%10(C)CC%11)nn9)c(OCc9cn(CCOCCOCCOCCOCCNC(=O)[C@]%10%11CCC(C)(C)C[C@H]%10C%10=CC[C@@H]%12[C@@]%13(C)CC[C@H](O)C(C)(C)[C@@H]%13CC[C@@]%12(C)[C@]%10(C)CC%11)nn9)c(OCc9cn(CCOCCOCCOCCOCCNC(=O)[C@]%10%11CCC(C)(C)C[C@H]%10C%10=CC[C@@H]%12[C@@]%13(C)CC[C@H](O)C(C)(C)[C@@H]%13CC[C@@]%12(C)[C@]%10(C)CC%11)nn9)c8)nn7)c6)nn5)cc(OCc5cn(CCOCCOCCOCCOCCNC(=O)[C@]67CCC(C)(C)C[C@H]6C6=CC[C@@H]8[C@@]9(C)CC[C@H](O)C(C)(C)[C@@H]9CC[C@@]8(C)[C@]6(C)CC7)nn5)c4OCc4cn(CCOCCOCCOCCOCCNC(=O)[C@]56CCC(C)(C)C[C@H]5C5=CC[C@@H]7[C@@]8(C)CC[C@H](O)C(C)(C)[C@@H]8CC[C@@]7(C)[C@]5(C)CC6)nn4)nn3)CC[C@]3(C)C(=CC[C@@H]4[C@@]5(C)CC[C@H](O)C(C)(C)[C@@H]5CC[C@]43C)[C@@H]2C1 | 53.88% | – | – | 99.3% | – | > 30 µM | Non-Toxic | – | – | – |
| CC1(C)CC[C@]2(C(=O)NCCOCCOCCn3cc(COc4cc(C(=O)NCCNC(=O)OCCn5cc(COc6cc(OCc7cn(CCOC(=O)NCCNC(=O)c8cc(OCc9cn(CCOCCOCCNC(=O)[C@]%10%11CCC(C)(C)C[C@H]%10C%10=CC[C@@H]%12[C@@]%13(C)CC[C@H](O)C(C)(C)[C@@H]%13CC[C@@]%12(C)[C@]%10(C)CC%11)nn9)c(OCc9cn(CCOCCOCCNC(=O)[C@]%10%11CCC(C)(C)C[C@H]%10C%10=CC[C@@H]%12[C@@]%13(C)CC[C@H](O)C(C)(C)[C@@H]%13CC[C@@]%12(C)[C@]%10(C)CC%11)nn9)c(OCc9cn(CCOCCOCCNC(=O)[C@]%10%11CCC(C)(C)C[C@H]%10C%10=CC[C@@H]%12[C@@]%13(C)CC[C@H](O)C(C)(C)[C@@H]%13CC[C@@]%12(C)[C@]%10(C)CC%11)nn9)c8)nn7)cc(OCc7cn(CCOC(=O)NCCNC(=O)c8cc(OCc9cn(CCOCCOCCNC(=O)[C@]%10%11CCC(C)(C)C[C@H]%10C%10=CC[C@@H]%12[C@@]%13(C)CC[C@H](O)C(C)(C)[C@@H]%13CC[C@@]%12(C)[C@]%10(C)CC%11)nn9)c(OCc9cn(CCOCCOCCNC(=O)[C@]%10%11CCC(C)(C)C[C@H]%10C%10=CC[C@@H]%12[C@@]%13(C)CC[C@H](O)C(C)(C)[C@@H]%13CC[C@@]%12(C)[C@]%10(C)CC%11)nn9)c(OCc9cn(CCOCCOCCNC(=O)[C@]%10%11CCC(C)(C)C[C@H]%10C%10=CC[C@@H]%12[C@@]%13(C)CC[C@H](O)C(C)(C)[C@@H]%13CC[C@@]%12(C)[C@]%10(C)CC%11)nn9)c8)nn7)c6)nn5)cc(OCc5cn(CCOCCOCCNC(=O)[C@]67CCC(C)(C)C[C@H]6C6=CC[C@@H]8[C@@]9(C)CC[C@H](O)C(C)(C)[C@@H]9CC[C@@]8(C)[C@]6(C)CC7)nn5)c4OCc4cn(CCOCCOCCNC(=O)[C@]56CCC(C)(C)C[C@H]5C5=CC[C@@H]7[C@@]8(C)CC[C@H](O)C(C)(C)[C@@H]8CC[C@@]7(C)[C@]5(C)CC6)nn4)nn3)CC[C@]3(C)C(=CC[C@@H]4[C@@]5(C)CC[C@H](O)C(C)(C)[C@@H]5CC[C@]43C)[C@@H]2C1 | 97.28% | > 1.66 | – | 97.2% | – | > 30 µM | – | 18.1 µM | – | – |
| COC(=O)c1cc(OCc2cn(CCOCCOCCOCCNC(=O)c3cc(OCc4cn(CCOCCOCCOCCNC(=O)[C@]56CCC(C)(C)C[C@H]5C5=CC[C@@H]7[C@@]8(C)CC[C@H](O)C(C)(C)[C@@H]8CC[C@@]7(C)[C@]5(C)CC6)nn4)c(OCc4cn(CCOCCOCCOCCNC(=O)[C@]56CCC(C)(C)C[C@H]5C5=CC[C@@H]7[C@@]8(C)CC[C@H](O)C(C)(C)[C@@H]8CC[C@@]7(C)[C@]5(C)CC6)nn4)c(OCc4cn(CCOCCOCCOCCNC(=O)[C@]56CCC(C)(C)C[C@H]5C5=CC[C@@H]7[C@@]8(C)CC[C@H](O)C(C)(C)[C@@H]8CC[C@@]7(C)[C@]5(C)CC6)nn4)c3)nn2)c(OCc2cn(CCOCCOCCOCCNC(=O)c3cc(OCc4cn(CCOCCOCCOCCNC(=O)[C@]56CCC(C)(C)C[C@H]5C5=CC[C@@H]7[C@@]8(C)CC[C@H](O)C(C)(C)[C@@H]8CC[C@@]7(C)[C@]5(C)CC6)nn4)c(OCc4cn(CCOCCOCCOCCNC(=O)[C@]56CCC(C)(C)C[C@H]5C5=CC[C@@H]7[C@@]8(C)CC[C@H](O)C(C)(C)[C@@H]8CC[C@@]7(C)[C@]5(C)CC6)nn4)c(OCc4cn(CCOCCOCCOCCNC(=O)[C@]56CCC(C)(C)C[C@H]5C5=CC[C@@H]7[C@@]8(C)CC[C@H](O)C(C)(C)[C@@H]8CC[C@@]7(C)[C@]5(C)CC6)nn4)c3)nn2)c(OCc2cn(CCOCCOCCOCCNC(=O)c3cc(OCc4cn(CCOCCOCCOCCNC(=O)[C@]56CCC(C)(C)C[C@H]5C5=CC[C@@H]7[C@@]8(C)CC[C@H](O)C(C)(C)[C@@H]8CC[C@@]7(C)[C@]5(C)CC6)nn4)c(OCc4cn(CCOCCOCCOCCNC(=O)[C@]56CCC(C)(C)C[C@H]5C5=CC[C@@H]7[C@@]8(C)CC[C@H](O)C(C)(C)[C@@H]8CC[C@@]7(C)[C@]5(C)CC6)nn4)c(OCc4cn(CCOCCOCCOCCNC(=O)[C@]56CCC(C)(C)C[C@H]5C5=CC[C@@H]7[C@@]8(C)CC[C@H](O)C(C)(C)[C@@H]8CC[C@@]7(C)[C@]5(C)CC6)nn4)c3)nn2)c1 | 65.08% | > 0.64 | – | 100% | – | > 30 µM | – | 47.1 µM | – | – |
| O=C1c2c(O)c(=O)ccn2N([C@@H]2c3ccccc3SCc3c2ccc(F)c3F)[C@@H]2COCCN12 [BALOXAVIR] | – | 1650 | 3.78 µM | – | 0.07 µM | 9.56 µM | – | 0.009 µM | 137 | 2.53 |
| CC1(C)CC[C@]2(C(=O)O)CC[C@]3(C)C(=CC[C@@H]4[C@@]5(C)CC[C@H](O)C(C)(C)[C@@H]5CC[C@]43C)[C@@H]2C1 [OLEANOLIC_ACID] | 25.06% | > 1.38 | – | 99% | – | > 100 µM | – | – | – | – |
